Source: the NIST ThermoML archive (doi:10.1021/je100069q)
Numbers after ± are expanded uncertainties.

Conditions: 101.33 kPa, Liquid

| SMILES | mass density (293.15 K) [kg/m3] | mass density (313.15 K) [kg/m3] | other results |
| --- | --- | --- | --- |
| Cc1ccccc1O [2-methylphenol] | – | – | mass density (308.15 K): 1032.73 ± 0.61 kg/m3 |
| Cc1cccc(O)c1 [3-methylphenol] | 1033.85 ± 0.28 | – | – |
| Cc1ccc(O)cc1 [4-methylphenol] | – | 1018.8 ± 0.27 | – |
| CCc1ccccc1 [ethylbenzene] | – | – | mass density (298.15 K): 862.59 ± 0.3 kg/m3 |
| Oc1ccccc1 [phenol] | – | 1058.3 ± 0.35 | – |
| Cc1ccccc1 [toluene] | 866.78 ± 0.31 | – | – |
